Values joined by “and” are separate entries in the source; they are usually repeats but may differ in a detail not shown here. Identical values can stand only once. Like-named read-outs stand apart in the source and are kept apart here.
Legend:
IKKe, TBK1 = experiment: KiNativ assay; type: binding; conditions: H929 live cell; for % inhibition (range): 10 μM
Procedure: (§1) Biochemical IC50s of the compounds of the present disclosure against various kinases were measured in a KiNativ assay. Compounds were screened in duplicate at 10 μM in H929 live cell. IC50 was measured via Mass spectroscopy (MS).

PKN1 = PKN1 (Homo sapiens (Human), UniProt Q16512); experiment: KiNativ assay; type: binding; conditions: H929 live cell
Procedure: as §1

CDK2 = CDK2 (Homo sapiens (Human), UniProt P24941); experiment: KiNativ assay; type: binding; conditions: H929 live cell
Procedure: as §1

PIP5K3 = PIP5K3 (Homo sapiens (Human), UniProt Q9Y2I7); experiment: KiNativ assay; type: binding; conditions: H929 live cell
Procedure: as §1

MST4 = experiment: KiNativ assay; type: binding; conditions: H929 live cell; for % inhibition (range): 10 μM
Procedure: as §1

STLK5 = STLK5 (Homo sapiens (Human), UniProt Q7RTN6); experiment: KiNativ assay; type: binding; conditions: H929 live cell
Procedure: as §1

NEK7 = NEK7 (Homo sapiens (Human), UniProt Q8TDX7); experiment: KiNativ assay; type: binding; conditions: H929 live cell
Procedure: as §1

MSK1 domain1 = MSK1 domain1 (Homo sapiens (Human), UniProt O75582); experiment: KiNativ assay; type: binding; conditions: H929 live cell
Procedure: as §1

PKCi = PKCi (Homo sapiens (Human), UniProt P41743); experiment: KiNativ assay; type: binding; conditions: H929 live cell
Procedure: as §1

CaMKK2 = CaMKK2 (Homo sapiens (Human), UniProt Q96RR4); experiment: KiNativ assay; type: binding; conditions: H929 live cell
Procedure: as §1

MAP3K4 = MAP3K4 (Homo sapiens (Human), UniProt Q9Y6R4); experiment: KiNativ assay; type: binding; conditions: H929 live cell
Procedure: as §1

MST3 = MST3 (Homo sapiens (Human), UniProt Q9Y6E0); experiment: KiNativ assay; type: binding; conditions: H929 live cell
Procedure: as §1

MLKL = MLKL (Homo sapiens (Human), UniProt Q8NB16); experiment: KiNativ assay; type: binding; conditions: H929 live cell
Procedure: as §1

RSK1 domain1 = RSK1 domain1 (Homo sapiens (Human), UniProt Q15418); experiment: KiNativ assay; type: binding; conditions: H929 live cell
Procedure: as §1

TLK2 = TLK2 (Homo sapiens (Human), UniProt Q86UE8); experiment: KiNativ assay; type: binding; conditions: H929 live cell
Procedure: as §1

HPK1 = HPK1 (Homo sapiens (Human), UniProt Q92918); experiment: KiNativ assay; type: binding; conditions: H929 live cell
Procedure: as §1

AMPKa1, AMPKa2 = experiment: KiNativ assay; type: binding; conditions: H929 live cell; for % inhibition (range): 10 μM
Procedure: as §1

PI4KA, PI4KAP2 = experiment: KiNativ assay; type: binding; conditions: H929 live cell; for % inhibition (range): 10 μM
Procedure: as §1

p38a = p38a (Homo sapiens (Human), UniProt Q16539); experiment: KiNativ assay; type: binding; conditions: H929 live cell, read-out: % inhibition (range)
Procedure: as §1

FYN, SRC, YES = experiment: KiNativ assay; type: binding; conditions: H929 live cell; for % inhibition (range): 10 μM
Procedure: as §1

AurA = AurA (Homo sapiens (Human), UniProt O14965); experiment: KiNativ assay; type: binding; conditions: H929 live cell
Procedure: as §1

PIP4K2C = PIP4K2C (Homo sapiens (Human), UniProt Q8TBX8); experiment: KiNativ assay; type: binding; conditions: H929 live cell
Procedure: as §1

PLK1 = PLK1 (Homo sapiens (Human), UniProt P53350); experiment: KiNativ assay; type: binding; conditions: H929 live cell
Procedure: as §1

OSR1 = OSR1 (Homo sapiens (Human), UniProt O95747); experiment: KiNativ assay; type: binding; conditions: H929 live cell
Procedure: as §1

NuaK1 = NuaK1 (Homo sapiens (Human), UniProt O60285); experiment: KiNativ assay; type: binding; conditions: H929 live cell
Procedure: as §1

MAP2K3 = MAP2K3 (Homo sapiens (Human), UniProt P46734); experiment: KiNativ assay; type: binding; conditions: H929 live cell
Procedure: as §1

TLK1 = TLK1 (Homo sapiens (Human), UniProt Q9UKI8); experiment: KiNativ assay; type: binding; conditions: H929 live cell
Procedure: as §1

STK24 (MST3) = STK24 (MST3) (Homo sapiens (Human), UniProt Q9Y6E0); experiment: Z-lyte biochemical IC50 assay (Invitrogen); conditions: ATP concentration matched the Km
Procedure, shortened: (§2)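 FRET-based Z-lyte kinase assays run at Invitrogen, ATP at each kinase's Km; for STK4, 6.25-160 ng enzyme with 2 μM Ser/Thr 07 peptide in HEPES pH 7.5, MgCl2, EGTA, Brij-35, 1 h reaction then development reagent. 10-point 3-fold titration from 10 μM.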

STK4 (MST1) = STK4 (MST1) (Homo sapiens (Human), UniProt Q13043); experiment: Z-lyte biochemical IC50 assay (Invitrogen); conditions: ATP concentration matched the Km
Procedure, shortened: as §2

Chain of CaMKK2 (Q96RR4 whole entry): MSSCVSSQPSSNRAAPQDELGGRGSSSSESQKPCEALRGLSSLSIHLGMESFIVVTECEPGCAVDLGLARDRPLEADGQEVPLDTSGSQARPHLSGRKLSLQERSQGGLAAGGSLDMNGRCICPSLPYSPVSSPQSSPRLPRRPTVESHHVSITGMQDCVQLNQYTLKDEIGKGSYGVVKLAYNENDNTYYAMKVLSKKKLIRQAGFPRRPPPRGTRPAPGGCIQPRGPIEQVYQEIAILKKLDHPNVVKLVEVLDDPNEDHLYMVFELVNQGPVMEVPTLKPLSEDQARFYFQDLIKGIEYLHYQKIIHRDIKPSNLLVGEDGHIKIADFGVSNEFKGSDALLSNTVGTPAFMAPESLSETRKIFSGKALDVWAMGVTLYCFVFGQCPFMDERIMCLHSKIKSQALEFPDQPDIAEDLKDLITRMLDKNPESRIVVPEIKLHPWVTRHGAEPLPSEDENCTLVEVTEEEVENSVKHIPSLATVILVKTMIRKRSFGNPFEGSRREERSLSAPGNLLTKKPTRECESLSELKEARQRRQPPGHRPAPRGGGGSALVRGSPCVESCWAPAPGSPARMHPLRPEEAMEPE
Chain of RSK1 domain1 (Q15418 whole entry, the tested form may be a part): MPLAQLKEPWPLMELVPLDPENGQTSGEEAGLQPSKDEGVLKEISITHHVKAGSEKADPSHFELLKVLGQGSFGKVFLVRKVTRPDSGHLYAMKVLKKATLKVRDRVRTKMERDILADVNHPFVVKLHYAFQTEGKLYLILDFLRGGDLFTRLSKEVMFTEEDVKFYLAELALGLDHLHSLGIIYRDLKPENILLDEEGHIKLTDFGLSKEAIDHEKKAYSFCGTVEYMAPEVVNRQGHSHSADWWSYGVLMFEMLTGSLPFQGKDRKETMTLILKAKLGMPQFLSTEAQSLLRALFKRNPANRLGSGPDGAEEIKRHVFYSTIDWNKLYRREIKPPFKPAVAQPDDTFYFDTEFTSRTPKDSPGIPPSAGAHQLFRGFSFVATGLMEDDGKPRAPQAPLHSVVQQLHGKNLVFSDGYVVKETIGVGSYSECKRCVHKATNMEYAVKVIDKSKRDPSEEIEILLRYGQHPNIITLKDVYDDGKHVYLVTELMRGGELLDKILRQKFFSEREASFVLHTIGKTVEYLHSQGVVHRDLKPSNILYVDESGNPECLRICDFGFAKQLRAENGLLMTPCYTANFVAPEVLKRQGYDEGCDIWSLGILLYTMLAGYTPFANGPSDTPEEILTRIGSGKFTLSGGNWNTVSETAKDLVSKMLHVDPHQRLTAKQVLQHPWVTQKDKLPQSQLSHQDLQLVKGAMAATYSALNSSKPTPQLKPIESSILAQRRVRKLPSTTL
Chain of TLK1 (Q9UKI8 whole entry): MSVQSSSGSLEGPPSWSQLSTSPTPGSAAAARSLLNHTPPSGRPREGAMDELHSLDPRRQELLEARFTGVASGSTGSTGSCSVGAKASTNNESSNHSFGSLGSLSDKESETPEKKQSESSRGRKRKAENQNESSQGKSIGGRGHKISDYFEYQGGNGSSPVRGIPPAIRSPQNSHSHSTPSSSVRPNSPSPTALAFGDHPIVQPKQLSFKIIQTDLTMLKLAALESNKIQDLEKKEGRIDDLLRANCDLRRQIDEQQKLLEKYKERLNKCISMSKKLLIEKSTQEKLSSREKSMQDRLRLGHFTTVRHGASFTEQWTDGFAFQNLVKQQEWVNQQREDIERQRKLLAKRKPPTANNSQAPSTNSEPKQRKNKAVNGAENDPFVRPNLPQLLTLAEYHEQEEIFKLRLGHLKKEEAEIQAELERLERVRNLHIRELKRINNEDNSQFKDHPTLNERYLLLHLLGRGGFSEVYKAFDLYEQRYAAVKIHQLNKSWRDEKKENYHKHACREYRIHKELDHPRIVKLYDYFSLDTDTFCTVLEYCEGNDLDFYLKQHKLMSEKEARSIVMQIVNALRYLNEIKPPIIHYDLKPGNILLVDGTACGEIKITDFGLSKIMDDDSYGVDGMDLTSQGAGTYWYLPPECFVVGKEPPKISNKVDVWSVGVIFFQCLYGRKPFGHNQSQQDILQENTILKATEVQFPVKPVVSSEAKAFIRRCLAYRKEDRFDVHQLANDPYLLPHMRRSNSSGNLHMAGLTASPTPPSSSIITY
Chain of STLK5 (Q7RTN6 whole entry): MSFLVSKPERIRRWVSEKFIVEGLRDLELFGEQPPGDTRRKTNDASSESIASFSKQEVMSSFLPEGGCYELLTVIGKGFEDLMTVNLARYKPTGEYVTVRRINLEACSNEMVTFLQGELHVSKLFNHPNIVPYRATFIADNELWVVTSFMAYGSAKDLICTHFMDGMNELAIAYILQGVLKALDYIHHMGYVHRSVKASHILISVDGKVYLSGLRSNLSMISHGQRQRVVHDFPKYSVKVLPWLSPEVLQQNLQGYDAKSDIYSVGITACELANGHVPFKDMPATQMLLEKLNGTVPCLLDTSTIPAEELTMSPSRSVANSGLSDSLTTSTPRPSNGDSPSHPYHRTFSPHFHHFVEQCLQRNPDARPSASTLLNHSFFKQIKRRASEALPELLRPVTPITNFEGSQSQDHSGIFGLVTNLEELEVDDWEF
Chain of MAP2K3 (P46734 whole entry): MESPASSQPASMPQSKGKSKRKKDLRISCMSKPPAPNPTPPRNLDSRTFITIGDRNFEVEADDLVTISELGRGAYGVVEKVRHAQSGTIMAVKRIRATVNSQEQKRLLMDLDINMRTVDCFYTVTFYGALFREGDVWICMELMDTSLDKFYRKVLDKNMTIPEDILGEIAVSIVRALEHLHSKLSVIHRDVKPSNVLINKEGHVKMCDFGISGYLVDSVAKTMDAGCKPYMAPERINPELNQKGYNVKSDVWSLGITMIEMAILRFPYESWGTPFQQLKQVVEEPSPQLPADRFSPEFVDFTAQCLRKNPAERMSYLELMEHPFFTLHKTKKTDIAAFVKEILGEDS
Chain of PIP4K2C (Q8TBX8 whole entry): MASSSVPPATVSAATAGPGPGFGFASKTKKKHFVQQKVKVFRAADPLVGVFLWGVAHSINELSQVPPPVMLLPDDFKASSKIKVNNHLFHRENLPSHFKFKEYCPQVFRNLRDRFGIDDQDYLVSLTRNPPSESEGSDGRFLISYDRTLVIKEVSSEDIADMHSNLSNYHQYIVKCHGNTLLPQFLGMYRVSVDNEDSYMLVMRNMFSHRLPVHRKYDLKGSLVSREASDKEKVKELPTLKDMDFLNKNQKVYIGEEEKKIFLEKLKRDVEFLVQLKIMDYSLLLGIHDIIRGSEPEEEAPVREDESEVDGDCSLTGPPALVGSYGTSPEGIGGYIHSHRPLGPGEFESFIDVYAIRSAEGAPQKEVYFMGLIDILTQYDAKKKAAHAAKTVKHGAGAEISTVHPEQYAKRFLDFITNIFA
Chain of NuaK1 (O60285 whole entry): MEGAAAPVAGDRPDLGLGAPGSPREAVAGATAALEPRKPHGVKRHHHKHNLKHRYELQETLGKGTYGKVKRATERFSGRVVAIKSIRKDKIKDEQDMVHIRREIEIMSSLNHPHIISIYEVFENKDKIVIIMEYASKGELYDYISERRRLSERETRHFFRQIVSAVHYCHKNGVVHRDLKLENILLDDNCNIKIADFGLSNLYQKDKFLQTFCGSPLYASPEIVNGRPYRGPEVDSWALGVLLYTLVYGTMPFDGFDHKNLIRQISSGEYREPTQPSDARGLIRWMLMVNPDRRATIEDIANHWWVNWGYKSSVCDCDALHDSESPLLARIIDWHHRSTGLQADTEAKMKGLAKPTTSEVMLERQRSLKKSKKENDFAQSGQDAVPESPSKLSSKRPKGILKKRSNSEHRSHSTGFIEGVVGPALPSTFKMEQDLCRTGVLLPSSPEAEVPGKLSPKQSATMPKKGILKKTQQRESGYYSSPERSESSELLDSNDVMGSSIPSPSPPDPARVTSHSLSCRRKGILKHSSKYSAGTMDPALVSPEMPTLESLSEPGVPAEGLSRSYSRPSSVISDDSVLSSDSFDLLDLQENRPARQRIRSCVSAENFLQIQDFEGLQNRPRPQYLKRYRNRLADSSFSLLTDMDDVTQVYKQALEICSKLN
Chain of TLK2 (Q86UE8 whole entry): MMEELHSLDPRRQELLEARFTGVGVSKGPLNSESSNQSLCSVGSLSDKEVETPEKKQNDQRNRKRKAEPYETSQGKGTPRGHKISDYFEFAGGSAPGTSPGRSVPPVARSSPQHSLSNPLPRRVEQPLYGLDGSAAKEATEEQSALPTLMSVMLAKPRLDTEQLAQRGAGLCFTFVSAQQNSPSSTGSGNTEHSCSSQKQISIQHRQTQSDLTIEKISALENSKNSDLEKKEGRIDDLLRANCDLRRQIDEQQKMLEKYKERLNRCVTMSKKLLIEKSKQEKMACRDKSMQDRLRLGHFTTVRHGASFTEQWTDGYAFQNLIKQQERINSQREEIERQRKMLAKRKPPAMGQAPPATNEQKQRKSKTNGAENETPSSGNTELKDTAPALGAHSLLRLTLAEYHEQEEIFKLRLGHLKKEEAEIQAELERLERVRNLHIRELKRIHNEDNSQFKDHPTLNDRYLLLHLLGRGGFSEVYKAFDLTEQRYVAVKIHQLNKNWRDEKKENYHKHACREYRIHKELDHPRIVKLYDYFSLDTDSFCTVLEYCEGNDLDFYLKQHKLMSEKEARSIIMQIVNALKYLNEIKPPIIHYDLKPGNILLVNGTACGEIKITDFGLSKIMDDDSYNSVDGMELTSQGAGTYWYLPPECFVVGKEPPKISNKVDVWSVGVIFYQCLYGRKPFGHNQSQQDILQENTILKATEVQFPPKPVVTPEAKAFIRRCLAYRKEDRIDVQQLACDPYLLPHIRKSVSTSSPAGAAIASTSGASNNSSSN
Chain of NEK7 (Q8TDX7 whole entry): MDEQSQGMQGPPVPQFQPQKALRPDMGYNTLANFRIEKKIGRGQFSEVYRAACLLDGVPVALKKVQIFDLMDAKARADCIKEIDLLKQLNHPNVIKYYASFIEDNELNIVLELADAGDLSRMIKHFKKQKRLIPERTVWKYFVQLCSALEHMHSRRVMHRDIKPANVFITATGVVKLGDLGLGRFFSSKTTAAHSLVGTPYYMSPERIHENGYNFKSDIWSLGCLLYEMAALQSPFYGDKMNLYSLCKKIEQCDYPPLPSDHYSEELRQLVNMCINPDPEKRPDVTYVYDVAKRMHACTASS

Nc1ncc(-c2cccc3ncsc23)cc1-c1ccc2c(c1)CCNC2=O [Compound I-13, 6-(2-amino-5-(benzo[d]thiazol-7-yl)pyridin-3-yl)-3,4-dihydroisoquinolin-1(2H)-one]
% inhibition (range) (IKKe, TBK1): 0.0%
inhibition (10 μM) (IKKe, TBK1): −9.9%
inhibition at 10 µM (PKN1; read-out: % inhibition (range)): 0%
inhibition at 10 µM (PKN1; read-out: inhibition (10 μM)): 19%
inhibition at 10 µM (CDK2; read-out: % inhibition (range)): 0%
inhibition at 10 µM (CDK2; read-out: inhibition (10 μM)): 33.3%
inhibition at 10 µM (PIP5K3; read-out: % inhibition (range)): > 90%
inhibition at 10 µM (PIP5K3; read-out: inhibition (10 μM)): 92.5%
% inhibition (range) (MST4): 0.0%
inhibition (10 μM) (MST4): 29.3%
inhibition at 10 µM (STLK5; read-out: % inhibition (range)): 0%
inhibition at 10 µM (STLK5; read-out: inhibition (10 μM)): 9.9%
inhibition at 10 µM (NEK7; read-out: % inhibition (range)): 0%
inhibition at 10 µM (NEK7; read-out: inhibition (10 μM)): -20.2%
inhibition at 10 µM (MSK1 domain1; read-out: % inhibition (range)): 0%
inhibition at 10 µM (MSK1 domain1; read-out: inhibition (10 μM)): 9.5%
inhibition at 10 µM (PKCi; read-out: % inhibition (range)): 0%
inhibition at 10 µM (PKCi; read-out: inhibition (10 μM)): 21.4%
inhibition at 10 µM (CaMKK2; read-out: % inhibition (range)): 50 to 75%
inhibition at 10 µM (CaMKK2; read-out: inhibition (10 μM)): 74.9%
inhibition at 10 µM (MAP3K4; read-out: % inhibition (range)): 0%
inhibition at 10 µM (MAP3K4; read-out: inhibition (10 μM)): 3%
inhibition at 10 µM (MST3; read-out: % inhibition (range)): 0%
inhibition at 10 µM (MST3; read-out: inhibition (10 μM)): -1.8%
inhibition at 10 µM (MLKL; read-out: % inhibition (range)): 0%
inhibition at 10 µM (MLKL; read-out: inhibition (10 μM)): 15.2%
inhibition at 10 µM (RSK1 domain1; read-out: % inhibition (range)): 0%
inhibition at 10 µM (RSK1 domain1; read-out: inhibition (10 μM)): 3.3%
inhibition at 10 µM (TLK2; read-out: % inhibition (range)): 0%
inhibition at 10 µM (TLK2; read-out: inhibition (10 μM)): 12.6%
inhibition at 10 µM (HPK1; read-out: % inhibition (range)): 50 to 75%
inhibition at 10 µM (HPK1; read-out: inhibition (10 μM)): 52.1%
% inhibition (range) (AMPKa1, AMPKa2): 0.0%
inhibition (10 μM) (AMPKa1, AMPKa2): 1.8%
% inhibition (range) (PI4KA, PI4KAP2): 0.0%
inhibition (10 μM) (PI4KA, PI4KAP2): −16.1%
inhibition at 10 µM (p38a): 0%
% inhibition (range) (FYN, SRC, YES): 0.0%
inhibition (10 μM) (FYN, SRC, YES): 0.3%
inhibition (10 μM) (AurA): 14.7%
inhibition at 10 µM (AurA; read-out: % inhibition (range)): 0%
inhibition at 10 µM (AurA; read-out: inhibition (10 μM)): 17.4%
inhibition at 10 µM (PIP4K2C; read-out: % inhibition (range)): 35 to 50%
inhibition at 10 µM (PIP4K2C; read-out: inhibition (10 μM)): 42%
inhibition at 10 µM (PLK1; read-out: % inhibition (range)): 0%
inhibition at 10 µM (PLK1; read-out: inhibition (10 μM)): 6.6%
inhibition at 10 µM (OSR1; read-out: % inhibition (range)): 0%
inhibition at 10 µM (OSR1; read-out: inhibition (10 μM)): 1.4%
% inhibition (range) (NuaK1; 10 μM): 50-75% and 75-90%
inhibition (10 μM) (NuaK1): 83.7%
inhibition at 10 µM (NuaK1; read-out: inhibition (10 μM)): 71.7%
inhibition at 10 µM (MAP2K3; read-out: % inhibition (range)): 0%
inhibition at 10 µM (MAP2K3; read-out: inhibition (10 μM)): 1.1%
inhibition at 10 µM (TLK1; read-out: % inhibition (range)): 0%
inhibition at 10 µM (TLK1; read-out: inhibition (10 μM)): 8.6%
IC50 (STK24 (MST3)): > 900 nM
IC50 (STK4 (MST1)): < 40 nM

CN(C1CC1)S(=O)(=O)c1ccc(-c2cnc(N)c(-c3ccc4c(c3)CCNC4=O)c2)c(F)c1 [Compound I-28, 4-(6-amino-5-(1-oxo-1,2,3,4-tetrahydroisoquinolin-6-yl)pyridin-3-yl)-N-cyclopropyl-3-fluoro-N-methylbenzenesulfonamide]
% inhibition (range) (IKKe, TBK1): 0.0%
inhibition (10 μM) (IKKe, TBK1): −14.8%
inhibition at 10 µM (PKN1; read-out: % inhibition (range)): 35 to 50%
inhibition at 10 µM (PKN1; read-out: inhibition (10 μM)): 40.5%
inhibition at 10 µM (CDK2; read-out: % inhibition (range)): 0%
inhibition at 10 µM (CDK2; read-out: inhibition (10 μM)): 27.6%
inhibition at 10 µM (PIP5K3; read-out: % inhibition (range)): 75 to 90%
inhibition at 10 µM (PIP5K3; read-out: inhibition (10 μM)): 83.4%
% inhibition (range) (MST4): 50-75%
inhibition (10 μM) (MST4): 63.9%
inhibition at 10 µM (STLK5; read-out: % inhibition (range)): 0%
inhibition at 10 µM (STLK5; read-out: inhibition (10 μM)): 6.3%
inhibition at 10 µM (NEK7; read-out: % inhibition (range)): 0%
inhibition at 10 µM (NEK7; read-out: inhibition (10 μM)): 16%
inhibition at 10 µM (MSK1 domain1; read-out: % inhibition (range)): 0%
inhibition at 10 µM (MSK1 domain1; read-out: inhibition (10 μM)): 5.4%
inhibition at 10 µM (PKCi; read-out: % inhibition (range)): 0%
inhibition at 10 µM (PKCi; read-out: inhibition (10 μM)): 12.7%
inhibition at 10 µM (CaMKK2; read-out: % inhibition (range)): 50 to 75%
inhibition at 10 µM (CaMKK2; read-out: inhibition (10 μM)): 57%
inhibition at 10 µM (MAP3K4; read-out: % inhibition (range)): 0%
inhibition at 10 µM (MAP3K4; read-out: inhibition (10 μM)): -8.8%
inhibition at 10 µM (MST3; read-out: % inhibition (range)): 50 to 75%
inhibition at 10 µM (MST3; read-out: inhibition (10 μM)): 72.3%
inhibition at 10 µM (MLKL; read-out: % inhibition (range)): 0%
inhibition at 10 µM (MLKL; read-out: inhibition (10 μM)): 23.9%
inhibition at 10 µM (RSK1 domain1; read-out: % inhibition (range)): 0%
inhibition at 10 µM (RSK1 domain1; read-out: inhibition (10 μM)): 15.6%
inhibition at 10 µM (TLK2; read-out: % inhibition (range)): 0%
inhibition at 10 µM (TLK2; read-out: inhibition (10 μM)): 14.2%
inhibition at 10 µM (HPK1; read-out: % inhibition (range)): > 90%
inhibition at 10 µM (HPK1; read-out: inhibition (10 μM)): 90.8%
% inhibition (range) (AMPKa1, AMPKa2): 0.0%
inhibition (10 μM) (AMPKa1, AMPKa2): −1.6%
% inhibition (range) (PI4KA, PI4KAP2): 0.0%
inhibition (10 μM) (PI4KA, PI4KAP2): −13.2%
inhibition at 10 µM (p38a): 0%
% inhibition (range) (FYN, SRC, YES): 0.0%
inhibition (10 μM) (FYN, SRC, YES): 2.2%
inhibition (10 μM) (AurA): 33.1%
inhibition at 10 µM (AurA; read-out: % inhibition (range)): 0%
inhibition at 10 µM (AurA; read-out: inhibition (10 μM)): 27.5%
inhibition at 10 µM (PIP4K2C; read-out: % inhibition (range)): 0%
inhibition at 10 µM (PIP4K2C; read-out: inhibition (10 μM)): 11.8%
inhibition at 10 µM (PLK1; read-out: % inhibition (range)): 0%
inhibition at 10 µM (PLK1; read-out: inhibition (10 μM)): 15.2%
inhibition at 10 µM (OSR1; read-out: % inhibition (range)): 0%
inhibition at 10 µM (OSR1; read-out: inhibition (10 μM)): 22.8%
inhibition (10 μM) (NuaK1): 66.7%
inhibition at 10 µM (NuaK1; read-out: % inhibition (range)): 50 to 75%
inhibition at 10 µM (NuaK1; read-out: inhibition (10 μM)): 55.6%
inhibition at 10 µM (MAP2K3; read-out: % inhibition (range)): 0%
inhibition at 10 µM (MAP2K3; read-out: inhibition (10 μM)): 1.4%
inhibition at 10 µM (TLK1; read-out: % inhibition (range)): 0%
inhibition at 10 µM (TLK1; read-out: inhibition (10 μM)): 1.8%
IC50 (STK24 (MST3)): 40 to 200 nM
IC50 (STK4 (MST1)): < 40 nM
